We go through 94 molecules from PubChem BioAssay AID463074 (Broad Institute, 2010).

The source made the active and inactive calls.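 The calls were made as follows: active = AC50 no more than tenfold above the top dose tested, or full inhibition at every dose with a flat fit (cut at about 19 µM in these data); inconclusive = flat curve fit with inhibition between 30% and 70%, or poor fit; inactive = AC50 more than tenfold above the top dose tested.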

For the assay, the system named is HMLE_sh_eGFP viability, CellTiter-Glo luminescence, 72 h. Nature of the assay: viability loss of HMLE_sh_eGFP cells – cell-based, luminescence, counter-screen for HMLE_sh_ECad selective toxicity project, dose response (AID 463074).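 Also: counterscreen control line to flag general toxicity for the HMLE_sh_ECad screen; potency for loss of viability as luminescence drops below DMSO wells.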
Take `O=C(Nc1cccc(C(F)(F)F)c1)Nc1ccc(N2CCCC2)c(S(=O)(=O)Nc2ccccc2Cl)c1`: the AC50 is 1.33 µM.

Turning to `c1ccc(CN2CCC(Nc3nc(-c4cccs4)nc4ccccc34)CC2)cc1`, the concentration at half-maximal activity (AC50) is 6.8 µM.

In the case of `CC(C)c1ccccc1OCC(O)CN(CC(O)COc1cccc2ccccc12)C(C)C` (centres undefined), the AC50 is 3.47 µM.

Take `Cc1cc(C(C)(C)C)c(OC(=O)[C@@H]2OC(c3ccccc3)=C[C@H]2c2ccccc2)c(C(C)(C)C)c1`: the AC50 is 7.77 µM.

For the molecule `CCNC(=S)N1N=C2c3ccccc3CCC2C1c1ccc(F)cc1` (centres undefined), the AC50 is 2.91 µM.

As for `CC1CCN(S(=O)(=O)c2ccc3c(c2)C(=NO)c2cc(S(=O)(=O)N4CCC(C)CC4)ccc2-3)CC1`, the AC50 is 1.01 µM.

In the case of `Cc1ccc(N/N=C/c2c(O)n(-c3ccccc3)c(=O)[nH]c2=O)cc1`, the AC50 was 3.87 µM.

Regarding `COc1cc(-c2ccc3oc(-c4cccc(C)c4)c(C#CC4(O)CCCCC4)c3c2)cc(OC)c1OC`, the concentration at half-maximal activity (AC50) is 15.4 µM.

As to `Cc1ccc(N2C(=O)NC(=O)/C(=C\C=C\c3ccco3)C2=O)cc1`, the AC50 is 4.54 µM.

`Cc1ccc(S(=O)(=O)N(C)c2ccc(OCc3cccc(C)c3)cc2)cc1`: the AC50 was 1.99 µM.

With `COc1ccc(NS(=O)(=O)c2cccc(C(=O)N/N=C(\C)c3ccc(-n4ccnc4)cc3)c2)cc1`, the AC50 was > 19.5 µM (inactive).

Consider `O=C(/C=C/c1ccc2c(c1)OCO2)NCCSCc1ccc(Cl)cc1`, for which the AC50 is 0.957 µM.

In the case of `O=C(Nc1cccc(NC(=O)c2ccc([N+](=O)[O-])o2)c1)c1ccco1`, the AC50 was 7.23 µM.

For the molecule `COC(=O)c1cccc(Nc2cc(C)nc(-c3ccccc3O)n2)c1`, the AC50 was 8.82 µM.

For the molecule `CC(C)c1ccc(/C=N/NC(=O)c2cccc(Cl)c2)cc1`, the AC50 is 8.64 µM.

As to `CSc1nnc(NC(=O)c2nc(S(=O)(=O)Cc3ccccc3F)ncc2Cl)s1`, the AC50 is 2.92 µM.

With `O=C(Nc1ccc(S(=O)(=O)N2CCOCC2)cc1)c1cc(-c2cc(Cl)ccc2O)n[nH]1`, the AC50 was 2.18 µM.

Take `Cc1ccc(-n2nnnc2SC(C(=O)c2c[nH]c3ccccc23)c2ccccc2)cc1` (centres undefined): the AC50 is 3.21 µM.

With `Cc1ccc(C2(c3noc(CN4CCC(c5ccncc5)CC4)n3)CCCC2)cc1`, the AC50 was 2.32 µM.

Take `CN1CCN(c2ccc([N+](=O)[O-])c(NCc3ccco3)c2)CC1`: the AC50 was 12.9 µM.

As to `O=C1/C(=C\c2cccnc2)CN(Cc2ccccc2)C/C1=C\c1cccnc1`, the AC50 is 3.9 µM.

Regarding `COC(=O)c1ccccc1NCc1cc(=O)oc2cc(O)c(O)cc12`, the AC50 is 10.9 µM.

For `C=C(C(=O)c1ccccc1)C(CC(=O)c1ccccc1)c1ccccc1` (centres undefined), the AC50 was 3.6 µM.

Consider `CCn1c2ccccc2c2cc(NS(=O)(=O)c3ccc(C)cc3)ccc21`, for which the AC50 is 4.53 µM.

Regarding `COc1ccc(Nc2nc(N)c([N+](=O)[O-])c(NC3CCCCC3)n2)cc1`, the AC50 was 4.58 µM.

Turning to `CCN(CC)CCCNC(=O)c1cc2c(Cl)nc3ccccc3c2s1`, the AC50 is 5.16 µM.

With `COc1ccc(-c2c(C#N)c(SCC(=O)c3cc4ccccc4oc3=O)nc(C)c2C(=O)Nc2ccccc2)cc1`, the half-maximal activity concentration (AC50) was 1.5 µM.

For `Cc1nc2ccccc2n1-c1nc(-c2ccco2)cc(C(F)(F)F)n1`, the AC50 was 0.817 µM.

With `C=CCNc1ncnc2c1ncn2C1OC(CO)C(O)C1O` (centres undefined), the AC50 is 4.39 µM.

On to `O=C(Nc1cc(C(F)(F)F)cc(C(F)(F)F)c1)Nc1cnn(-c2ccc([N+](=O)[O-])cc2)c1C(F)(F)F`, for which the AC50 is 0.848 µM.

Regarding `Cc1ccc(S(=O)(=O)Nc2ccc(-c3csc(-c4ccccc4)n3)cc2)cc1`, the AC50 was 6.85 µM.

In the case of `S=C(NCC1CCCCC1)Nc1ccc(Oc2ccccc2)cc1`, the AC50 is 5.41 µM.

As to `Cc1ccc(C)c(NC(=O)c2ccccc2NS(=O)(=O)c2cc([N+](=O)[O-])ccc2C)c1`, the AC50 is 4.27 µM.

Regarding `CCCOc1ccc(/C=N/Nc2cccc([N+](=O)[O-])c2)c(O)c1`, the AC50 was 3.42 µM.

Consider `Cc1cc(C(=O)NNc2ccc(F)cc2)no1`, for which the AC50 was 1.68 µM.

Regarding `Cn1c(/C(C#N)=C(\O)COc2ccc3ccccc3c2)nc2ccccc21`, the AC50 is 0.359 µM.

For `Cc1noc(C)c1CSc1nc2ccccc2nc1NS(=O)(=O)c1ccc(Cl)cc1`, the AC50 was 1.79 µM.

As for `COc1ccc(-c2sc3cc4c(cc3c2C#CC2(N)CCCCC2)OCO4)cc1`, the AC50 is 1.91 µM.

`CCCNC(=O)c1onc(CSc2ccc(Cl)cc2)c1C(=O)NCCC(C)C`: the AC50 was 2.99 µM.

As to `CC1(C)Cc2c(C#N)c(NC3CCCCC3)nc(-c3ccco3)c2CO1`, the AC50 is 7.19 µM.

`CCOC(=O)c1ccc(Nc2cc(C)nc(-c3ccccc3)n2)cc1`: the AC50 is 3.71 µM.

Take `Cc1cc(C)nc(NC(=O)/C=C/c2cccs2)c1`: the AC50 is > 19.5 µM (inactive).

Consider `COc1ccc(NC(=O)c2c(N)no[n+]2[O-])cc1`, for which the AC50 is 1.34 µM.

Turning to `O=C(C[n+]1ccccc1)NNc1ccccc1`, the AC50 is 1.78 µM.

Consider `COc1cc2c(cc1OC)C(c1ccc(-c3ccc(Cl)c(Cl)c3)o1)=NCC2`, for which the AC50 is 3.99 µM.

In the case of `CCN(CC)Cc1c(O)ccc2c1O/C(=C\C=C\c1ccccc1)C2=O`, the AC50 is 18.8 µM.

On to `CC(C)OC(=O)C(=O)NNc1ccccc1`, for which the AC50 was 1.22 µM.

As for `COc1ccc2cc(/C=N/NC(=O)c3ccc(CN(c4cccc(Cl)c4Cl)S(C)(=O)=O)cc3)c(Cl)nc2c1`, the AC50 is 0.211 µM.

For the molecule `COc1ccc(OC)c(C(=O)/C=C/c2ccccc2C(F)(F)F)c1`, the AC50 is 6.67 µM.

As to `COc1cccc(/C=C/C(=C2/C(=O)N(c3ccccc3)N=C2C)c2ccc(Br)cc2)c1OC`, the AC50 was > 19.5 µM (inactive).

For the molecule `CC1(C)Cc2ccccc2C(CSc2ccccc2C(=O)O)=N1`, the AC50 is 17.2 µM.

For the molecule `COc1cc(C(=O)OC2CC3CCC2(C)C3(C)C)ccc1OC(C)=O` (centres undefined), the AC50 was 6.46 µM.

Take `COc1ccc(C(CCNCc2ccc(OC(C)C)cc2)c2ccccc2OC)cc1` (centres undefined): the AC50 was 4.66 µM.

Regarding `O=C(/C(=C\c1ccccc1)c1nc2ccccc2[nH]1)c1ccc(Cl)cc1`, the AC50 was 3.27 µM.

Consider `Oc1ccc(Cl)cc1-c1cc(-c2cccc(Br)c2)n[nH]1`, for which the AC50 is 6.39 µM.

Turning to `CCOc1ccccc1CNc1ncnc2ccc(-c3c(C)noc3C)cc12`, the AC50 is 6.05 µM.

For the molecule `O=C/C=C/c1c(-c2ccccc2)cc2oc3ccccc3cc1-2`, the AC50 was 9.18 µM.

Take `O=[N+]([O-])c1ccc(Cl)c([N+](=O)[O-])c1`: the AC50 was 5.62 µM.

Consider `CN1C(=O)/C(=C/c2cc(N=Nc3ccccc3)ccc2O)SC1=S`, for which the AC50 was 1.29 µM.

On to `Cc1cccc(NC(=O)c2ccc(COc3ccc(Cl)cc3Cl)o2)n1`, for which the AC50 is 3.38 µM.

Consider `C[C@@H]1CCC(=O)N(CC[C@H](Sc2ccc(Br)cc2)c2ccccc2)CC1`, for which the AC50 is 5.66 µM.

As to `CCc1ccc(N=Nc2ccc(O)c3[nH]cnc23)cc1`, the AC50 was 2.06 µM.

On to `COCCNC(=O)NC1(C(F)(F)F)Oc2ccc(Cl)cc2O1` (centres undefined), for which the AC50 was 17.6 µM.

With `O=C(NC(=S)Nc1ccccc1N1CCCCC1)c1ccc(F)cc1Cl`, the AC50 is 2.84 µM.

For the molecule `CS(=O)(=O)c1ncc(Cl)c(C(=O)Nc2ccc(N3CCOCC3)cc2)n1`, the AC50 is 6.81 µM.

As to `O=c1cc(C(F)(F)F)[nH]c2c(OC(F)(F)F)cccc12`, the AC50 is > 19.5 µM (inactive).

Turning to `Cc1c(C)n(CCc2ccccc2)c2ncnc(NCCCN(C)C)c12`, the AC50 is 5.52 µM.

Consider `CCCCNc1c(-c2ccc(OC)c(Sc3ccc(OC)cc3)c2)nc2ccccn12`, for which the AC50 is 4.55 µM.

On to `CC(=O)Nc1ccc(OCC(O)CN2CCN(c3cc(Cl)ccc3C)CC2)cc1` (centres undefined), for which the AC50 is 5.17 µM.

On to `O=C(Nc1ccc(Cl)cc1)Nc1ccccc1Sc1ncc([N+](=O)[O-])s1`, for which the AC50 was 6.81 µM.

For the molecule `CCOc1ccc(OCC(=O)N(CCC2=CCCCC2)c2c(N)n(Cc3ccccc3)c(=O)[nH]c2=O)cc1`, the AC50 was 6.29 µM.

In the case of `CC(C)OCCCNC(=O)c1c(N)n(Cc2cccs2)c2nc3ccccc3nc12`, the AC50 is 4.3 µM.

As for `CCOC(=O)c1c(-c2ccccc2)csc1NC(=O)c1nn(CC)cc1Br`, the AC50 was 0.478 µM.

Take `COc1ccc(-c2cc(-c3nc4ccccn4c3NCc3ccccc3)ccc2OC)cc1`: the AC50 was 1.96 µM.

Turning to `CC[C@@]1(O)C(=O)OCc2c1cc1n(c2=O)Cc2cc3c(NC(=O)CN)cccc3nc2-1`, the AC50 is 2.56 µM.

Turning to `Cc1sc2ncnc(N3CCC(C(=O)N(C)CC(=O)Nc4ccc(Cl)c(C(F)(F)F)c4)CC3)c2c1C`, the concentration at half-maximal activity (AC50) is 3.93 µM.

As to `Cc1ccc(C(=O)N/C(=C\c2ccc(-c3ccc(Br)cc3)o2)C(=O)NCCCN(C)C)cc1`, the AC50 was 4.38 µM.

In the case of `COC(=O)C1C(=O)C2=C(CC1C)NC(=O)CC2c1cccc(C)c1` (centres undefined), the AC50 is > 19.5 µM (inactive).

As to `CC(C)CC(=O)NC(NC(=S)Nc1sc2c(c1C#N)CCCC2)C(Cl)(Cl)Cl` (centres undefined), the AC50 was 10.6 µM.

Turning to `S=C(Nc1cccc(Cl)c1)N(CCCN1CCCC1)Cc1cccn1Cc1ccc(Cl)cc1`, the AC50 is 6.86 µM.

With `O=C(CSCc1cccc(Br)c1)N/N=C/c1ccc2c(c1)OCO2`, the AC50 was 5.34 µM.

As to `Cc1ccc(/C=C/C(=O)NCC2COc3ccccc3O2)o1` (centres undefined), the AC50 is > 19.5 µM (inactive).

As for `COc1ccc(C(=O)/C=C/c2cc(OC)c(O)c(OC)c2)c(F)c1`, the AC50 is 12.3 µM.

As for `CCN1CCN(c2cc(C)c3cc(NC(=S)N4CCN(c5ccc(F)cc5)CC4)ccc3n2)CC1`, the AC50 is 4.67 µM.

Take `COc1ccc(-c2ccc(C)cc2)cc1[C@H]1[C@@H]2C=CCC[C@@]2(C)C(=O)N1Cc1ccccc1`: the AC50 was 3.87 µM.

Turning to `Cc1ccn2c(Nc3ccccc3)c(-c3ccccn3)nc2c1`, the AC50 was 4.57 µM.

Turning to `Cc1nn(-c2ccccc2)c(N2CCCCC2)c1/C=N/O`, the AC50 is 1.69 µM.

In the case of `Cn1cnc(Sc2ncnc3nc[nH]c23)c1[N+](=O)[O-]`, the AC50 is 3.26 µM.

Regarding `CCc1cc(-c2n[nH]c(C)c2-c2ccccc2Cl)c(O)cc1OC`, the AC50 is 3.77 µM.

On to `COc1ccc(C2c3ccc4ccccc4c3Oc3ncn(Cc4ccco4)c(=N)c32)cc1OC` (centres undefined), for which the AC50 was 7.58 µM.

As for `CC(C)(C)c1cc(CSC(=S)NC2CCS(=O)(=O)C2)c(Br)c(C(C)(C)C)c1` (centres undefined), the half-maximal activity concentration (AC50) was 3.8 µM.

Regarding `CCN1CCN(CCCOc2ccc(-c3ccccc3)cc2)CC1`, the AC50 was 5.67 µM.

Consider `NC(=O)c1ccc(NC(=O)COC(=O)c2c3c(nc4ccccc24)/C(=C\c2cccs2)CCC3)cc1`, for which the AC50 is 10.3 µM.

`O=C(NNc1ccc(-c2csnn2)cc1)c1cc(Cl)cc(Cl)c1`: the AC50 is 3.02 µM.

What is called AC50 is the concentration at which the activity in the assay is half-maximal.
